Results published in patent US20170304411A1, “TOPICAL FORMULATION FOR TREATING SKIN OR MUCOSAL INFECTIONS, PREPARATION METHOD AND USES THEREOF” (HPRD - HEALTH PRODUCTS RESEARCH AND DEVELOPMENT LDA, priority 2014, published 2017).

Key:
[1] = system: biofilms from C. albicans strains; settings: clotrimazole alone, without bromelain
[2] = system: biofilms from C. albicans strains; assay: Checkerboard bromelain/clotrimazole, metabolic activity of biofilms (XTT reduction assay); assay type: cell-based; settings: increasing concentrations of clotrimazole alone; tested C. albicans strains
From the text: Following the washing step of microplates, the number of metabolically active cells available to metabolize XTT is reduced, leading to the overall reduction on metabolic activity.

[3] = applied with no dilution on skin and mucosa as occlusive patch; cited from earlier work
[4] = after application in the eye; cited from earlier work
[5] = system: planktonic cells of different Candida species, including C. albicans; assay: Direct fungistatic or fungicidal activity against planktonic cells; assay type: cell-based; settings: previous studies by the applicant's team
Procedure: When bromelain is added, an increase of activity reduction is observed, dependent on the enzyme concentration (the addition of a 250 μg/mL bromelain solution leads to metabolic activity reductions near 80% for both strains). […] Thus, the increase in metabolic activity reduction shown for the combination of bromelain and clotrimazole is not due to a direct fungistatic activity of the enzyme, but to a degradation of the biofilm matrix. The degradation of this matrix allows for the penetration of clotrimazole in the biofilm favouring its antimicrobial action.

Compound: Clc1ccccc1C(c1ccccc1)(c1ccccc1)n1ccnc1 [clotrimazole]
- reduction of biofilm biomass [1]: limited
- reduction of metabolic activity [2]: ≤ 60%

Compound: CC(=O)OCC(COC(C)=O)OC(C)=O [triacetin]
- irritation potential [3]: low irritation potential
- ocular irritation [4]: induces an ocular irritation it does not cause harm

Compound: bromelain
- direct fungistatic or fungicidal activity [5]: does not exhibit direct fungistatic or fungicidal activity
